{"source": "patent US5114464A", "about": "“4-quinoxalinyloxyphenoxyalkylinitrile herbicides” (Uniroyal Chemical Company, Inc., priority 1990, dated 1992)", "key": {"cotton": {"system": "cotton", "experiment": "Postemergence selectivity, greenhouse: cotton injury (Table III)", "type": "in vivo", "settings": "250 ppm, treated May 26, rated Jun. 12", "procedure": "(§1) To illustrate the effectiveness of the Compounds 1 and 2 of this invention as preemergence herbicides, 300 mg of each compound were dissolved in 10 ml acetone to which 30 mg of an emulsifying agent, ethoxylated sorbitan monolaurate, were added. The solution was diluted to 100 ml with distilled water. Ten milliliters of the 3000 ppm solution were diluted to 250 ppm with distilled water. The chemical was applied at the rate of 10 lb/A (11.2 kg/ha) by drenching 46 ml of the 250 ppm solution on the surface of soil in 41/2inch (11.25 cm) plastic pots wherein seeds of the following weeds had been planted: velvet leaf (Abutilon theoohrasti Medic.) (VL), prickly sida (sida soinosa L.) (PS), tall morningglory (Ioomea purourea L. Roth) (TM), switchgrass (Panicum viroatum L.) (SG), barnyard grass (Echinolchloa crus-oalli (L.) Beauv.) (BG), and green foxtail (Setaria viridis) (L.) Beauv.) (GF). The percent control of the weeds compared to untreated checks was determined two weeks after treatment.\n(§2) To illustrate the effectiveness of Compound 1 of this invention as a corn-safe selective postemergence herbicide, the 3000 ppm solution prepared as described in Example 3 was diluted with distilled water to 250 ppm and applied to foliage as described in Example 3. The commercial product Hoelon 3EC® (Hoechst) was included as a standard. […] The percent weed control and crop injury was determined on Jun. […]"}, "corn hybrids": {"system": "corn hybrids", "experiment": "Postemergence selectivity, field test: corn hybrids (Table IV)", "type": "in vivo", "settings": "for Percent corn crop control (injury): 33 days", "procedure": "(§3) To further illustrate the effectiveness of Compound 1 of this invention as a corn-safe selective postemergence herbicide, field tests were run in which five corn hybrids (designated C9979, C6114, C8004 and C1914 by the Independent Professional Seedsmans Association, and Pioneer 3295) along with two grass weeds (Giant foxtail, \"GF\"; and Barnyard grass, \"BG\") were planted in an Illinois field on April 24. The crops were treated with various amounts of Compound 1 in early Jun., and the amount of crop control was evaluated 33 days after treatment compared to an untreated control. The active ingredient was formulated as follows: […]\n(§4) That produces a formulation containing 10% active ingredient by weight. The required amount of formulation to produce the indicated rate per acre is added to water, mixed with one quart of an adjuvant containing 83% mineral oil and 17% emulsifiers, then brought up to a total spray volume of 20 gallons per acre with water."}, "tall morningglory [1]": {"system": "tall morningglory", "experiment": "Postemergence control of tall morningglory (Table II)", "type": "in vivo, Ioomea purourea L. Roth", "settings": "3000 ppm, two weeks after treatment", "procedure": "as §1\n(§5) To test the effectiveness of Compounds 1 and 2 of this invention as postemergence herbicides, a 3000 ppm solution of each compound (produced in accordance with the process described under Example 3) was atomized employing a DEVILBISS [trademark] sprayer, wetting the foliage to the drip point. […] The percent weed control was evaluated two weeks after treatment."}, "prickly sida [2]": {"system": "prickly sida", "experiment": "Postemergence control of prickly sida (Table II)", "type": "in vivo, sida soinosa L.", "settings": "3000 ppm, two weeks after treatment", "procedure": "as §1, §5"}, "weeds [3]": {"system": "weeds", "experiment": "Preemergence control, summary statement", "type": "in vivo", "settings": "11.2 kg/ha", "procedure": "as §1"}, "grass weeds [4]": {"system": "grass weeds", "experiment": "Postemergence selectivity field test (Example 6), summary for grass weeds", "type": "in vivo", "settings": "0.125 to 0.50 lb/a", "procedure": "as §3, §4"}, "green foxtail [5]": {"system": "green foxtail", "experiment": "Postemergence selectivity, greenhouse: green foxtail control (Table III)", "type": "in vivo, Setaria viridis (L.) Beauv.", "settings": "250 ppm, treated May 26, rated Jun. 12", "procedure": "as §1, §2"}, "Barnyard grass [6]": {"system": "Barnyard grass", "experiment": "Postemergence selectivity, field test: Barnyard grass control (Table IV)", "type": "in vivo", "settings": "33 days after treatment", "procedure": "as §3, §4"}, "Giant foxtail": {"system": "Giant foxtail", "experiment": "Postemergence selectivity, field test: Giant foxtail control (Table IV)", "type": "in vivo", "settings": "33 days after treatment", "procedure": "as §3, §4"}, "weeds [7]": {"system": "weeds", "experiment": "Postemergence control, summary statement", "type": "in vivo", "settings": "3000 ppm", "procedure": "as §1, §5"}, "velvet leaf [8]": {"system": "velvet leaf", "experiment": "Postemergence control of velvet leaf (Table II)", "type": "in vivo, Abutilon theoohrasti Medic.", "settings": "3000 ppm, two weeks after treatment", "procedure": "as §1, §5"}, "barnyard grass [9]": {"system": "barnyard grass", "experiment": "Postemergence selectivity, greenhouse: barnyard grass control (Table III)", "type": "in vivo, Echinolchloa crus-oalli (L.) Beauv.", "settings": "250 ppm, treated May 26, rated Jun. 12", "procedure": "as §1, §2"}, "barnyard grass [10]": {"system": "barnyard grass", "experiment": "Postemergence control of barnyard grass (Table II)", "type": "in vivo, Echinolchloa crus-oalli (L.) Beauv.", "settings": "3000 ppm, two weeks after treatment", "procedure": "as §1, §5"}, "switchgrass [11]": {"system": "switchgrass", "experiment": "Postemergence control of switchgrass (Table II)", "type": "in vivo, Panicum viroatum L.", "settings": "3000 ppm, two weeks after treatment", "procedure": "as §1, §5"}, "prickly sida [12]": {"system": "prickly sida", "experiment": "Preemergence control of prickly sida (Table I)", "type": "in vivo, sida soinosa L.", "settings": "11.2 kg/ha, two weeks after treatment", "procedure": "as §1"}, "switchgrass [13]": {"system": "switchgrass", "experiment": "Preemergence control of switchgrass (Table I)", "type": "in vivo, Panicum viroatum L.", "settings": "11.2 kg/ha, two weeks after treatment", "procedure": "as §1"}, "switchgrass [14]": {"system": "switchgrass", "experiment": "Postemergence selectivity, greenhouse: switchgrass control (Table III)", "type": "in vivo, Panicum viroatum L.", "settings": "250 ppm, treated May 26, rated Jun. 12", "procedure": "as §1, §2"}, "green foxtail [15]": {"system": "green foxtail", "experiment": "Preemergence control of green foxtail (Table I)", "type": "in vivo, Setaria viridis (L.) Beauv.", "settings": "11.2 kg/ha, two weeks after treatment", "procedure": "as §1"}, "corn": {"system": "corn", "experiment": "Postemergence selectivity, greenhouse: corn injury (Table III)", "type": "in vivo", "settings": "250 ppm", "procedure": "as §1, §2"}, "soybean": {"system": "soybean", "experiment": "Postemergence selectivity, greenhouse: soybean injury (Table III)", "type": "in vivo", "settings": "250 ppm, treated May 26, rated Jun. 12", "procedure": "as §1, §2"}, "velvet leaf [16]": {"system": "velvet leaf", "experiment": "Preemergence control of velvet leaf (Table I)", "type": "in vivo, Abutilon theoohrasti Medic.", "settings": "11.2 kg/ha, two weeks after treatment", "procedure": "as §1"}, "green foxtail [17]": {"system": "green foxtail", "experiment": "Postemergence control of green foxtail (Table II)", "type": "in vivo, Setaria viridis (L.) Beauv.", "settings": "3000 ppm, two weeks after treatment", "procedure": "as §1, §5"}, "tall morningglory [18]": {"system": "tall morningglory", "experiment": "Preemergence control of tall morningglory (Table I)", "type": "in vivo, Ioomea purourea L. Roth", "settings": "11.2 kg/ha, two weeks after treatment", "procedure": "as §1"}, "barnyard grass [19]": {"system": "barnyard grass", "experiment": "Preemergence control of barnyard grass (Table I)", "type": "in vivo, Echinolchloa crus-oalli (L.) Beauv.", "settings": "11.2 kg/ha, two weeks after treatment", "procedure": "as §1"}, "grass weeds [20]": {"system": "grass weeds", "experiment": "Postemergence selectivity greenhouse (Example 5), summary for grass weeds", "type": "in vivo", "settings": "250 ppm", "procedure": "as §1, §2"}}, "data": [{"smiles": "N#CCOc1ccc(Oc2cnc3cc(Cl)ccc3n2)cc1", "note": "[Compound 1, 2-[4-(6-chloro-2-quinoxalinyloxy)phenoxy]acetonitrile]", "values": [{"measurement": "Percent crop injury COTTON", "setting": "cotton", "value": 0, "unit": "%"}, {"measurement": "corn safety", "setting": "corn hybrids; 0.125 to 0.50 lb/a", "value": "substantially innocuous to corn"}, {"measurement": "Percent corn crop control (injury)", "setting": "corn hybrids; corn hybrid C1914, 0.125 lb/a", "value": 0, "unit": "%"}, {"measurement": "Percent corn crop control (injury)", "setting": "corn hybrids; corn hybrid C1914, 0.25 lb/a", "value": 0, "unit": "%"}, {"measurement": "Percent corn crop control (injury)", "setting": "corn hybrids; corn hybrid C1914, 0.50 lb/a", "value": 0, "unit": "%"}, {"measurement": "Percent corn crop control (injury)", "setting": "corn hybrids; corn hybrid C6114, 0.125 lb/a", "value": 0, "unit": "%"}, {"measurement": "Percent corn crop control (injury)", "setting": "corn hybrids; corn hybrid C6114, 0.25 lb/a", "value": 0, "unit": "%"}, {"measurement": "Percent corn crop control (injury)", "setting": "corn hybrids; corn hybrid C6114, 0.50 lb/a", "value": 0, "unit": "%"}, {"measurement": "Percent corn crop control (injury)", "setting": "corn hybrids; corn hybrid C8004, 0.125 lb/a", "value": 0, "unit": "%"}, {"measurement": "Percent corn crop control (injury)", "setting": "corn hybrids; corn hybrid C8004, 0.25 lb/a", "value": 0, "unit": "%"}, {"measurement": "Percent corn crop control (injury)", "setting": "corn hybrids; corn hybrid C8004, 0.50 lb/a", "value": 0, "unit": "%"}, {"measurement": "Percent corn crop control (injury)", "setting": "corn hybrids; corn hybrid C9979, 0.125 lb/a", "value": 0, "unit": "%"}, {"measurement": "Percent corn crop control (injury)", "setting": "corn hybrids; corn hybrid C9979, 0.25 lb/a", "value": 0, "unit": "%"}, {"measurement": "Percent corn crop control (injury)", "setting": "corn hybrids; corn hybrid C9979, 0.50 lb/a", "value": 0, "unit": "%"}, {"measurement": "Percent corn crop control (injury)", "setting": "corn hybrids; corn hybrid Pioneer 3295, 0.125 lb/a", "value": 0, "unit": "%"}, {"measurement": "Percent corn crop control (injury)", "setting": "corn hybrids; corn hybrid Pioneer 3295, 0.25 lb/a", "value": 0, "unit": "%"}, {"measurement": "Percent corn crop control (injury)", "setting": "corn hybrids; corn hybrid Pioneer 3295, 0.50 lb/a", "value": 0, "unit": "%"}, {"measurement": "% Control TM", "setting": "tall morningglory [1]", "value": 0, "unit": "%"}, {"measurement": "% Control PS", "setting": "prickly sida [2]", "value": 0, "unit": "%"}, {"measurement": "herbicidal efficacy", "setting": "weeds [3]", "value": "good to excellent herbicidal efficacy"}, {"measurement": "control of several grass weeds", "setting": "grass weeds [4]", "value": "good control of several grass weeds"}, {"measurement": "Percent Weed Control GF", "setting": "green foxtail [5]", "value": 90, "unit": "%"}, {"measurement": "Percent Weed Control BG", "setting": "Barnyard grass [6]; 0.125 lb/a", "value": 30.0, "unit": "%"}, {"measurement": "Percent Weed Control BG", "setting": "Barnyard grass [6]; 0.25 lb/a", "value": 43.3, "unit": "%"}, {"measurement": "Percent Weed Control BG", "setting": "Barnyard grass [6]; 0.50 lb/a", "value": 90.0, "unit": "%"}, {"measurement": "Percent Weed Control GF", "setting": "Giant foxtail; 0.125 lb/a", "value": 99.3, "unit": "%"}, {"measurement": "Percent Weed Control GF", "setting": "Giant foxtail; 0.25 lb/a", "value": 100, "unit": "%"}, {"measurement": "Percent Weed Control GF", "setting": "Giant foxtail; 0.50 lb/a", "value": 100, "unit": "%"}, {"measurement": "postemergent herbicidal control", "setting": "weeds [7]", "value": "desirable postemergent herbicidal control"}, {"measurement": "% Control VL", "setting": "velvet leaf [8]", "value": 0, "unit": "%"}, {"measurement": "Percent Weed Control BG", "setting": "barnyard grass [9]", "value": 100, "unit": "%"}, {"measurement": "% Control BG", "setting": "barnyard grass [10]", "value": 100, "unit": "%"}, {"measurement": "% Control SG", "setting": "switchgrass [11]", "value": 100, "unit": "%"}, {"measurement": "% Control PS", "setting": "prickly sida [12]", "value": 0, "unit": "%"}, {"measurement": "% Control SG", "setting": "switchgrass [13]", "value": 50, "unit": "%"}, {"measurement": "Percent weed control SG", "setting": "switchgrass [14]", "value": 100, "unit": "%"}, {"measurement": "% Control GF", "setting": "green foxtail [15]", "value": 90, "unit": "%"}, {"measurement": "corn safety", "setting": "corn", "value": "substantially innocuous to corn"}, {"measurement": "Percent crop injury CORN", "setting": "corn; treated May 26, rated Jun. 12", "value": 0, "unit": "%"}, {"measurement": "Percent crop injury SOYBEAN", "setting": "soybean", "value": 0, "unit": "%"}, {"measurement": "% Control VL", "setting": "velvet leaf [16]", "value": 0, "unit": "%"}, {"measurement": "% Control GF", "setting": "green foxtail [17]", "value": 9, "unit": "%"}, {"measurement": "% Control TM", "setting": "tall morningglory [18]", "value": 0, "unit": "%"}, {"measurement": "% Control BG", "setting": "barnyard grass [19]", "value": 100, "unit": "%"}, {"measurement": "control of several grass weeds", "setting": "grass weeds [20]", "value": "good control of several grass weeds"}]}]}
